Laboratory results published in article PMC6253998, “Ring-substituted 4-Hydroxy-1H-quinolin-2-ones: Preparation and Biological Activity” (Molecules, 2009).
≈ marks a conversion by molar mass, not a printed value. Where two headings read alike, the source gives them in different places.

What was measured:
[1] = test system: spinach chloroplasts; assay: Inhibition of oxygen evolution rate (OER) / photosynthetic electron transport in spinach chloroplasts; assay type: biochemical, Spinacia oleracea L.; conditions: for IC50: DCPIP photoreduction, pH 7.2
Description: Chloroplasts were prepared from spinach (Spinacia oleracea L.) according to Masarovicova and Kralova. The inhibition of photosynthetic electron transport (PET) in spinach chloroplasts was determined spectrophotometrically (Genesys 6, Thermo Scientific, U.S.A.) using an artificial electron acceptor 2,6-dichlorophenol-indophenol (DCPIP) according to Kralova et al. and the rate of photosynthetic electron transport was monitored as a photoreduction of DCPIP. The measurements were carried out in phosphate buffer (0.02 mol/L, pH 7.2) containing sucrose (0.4 mol/L), MgCl2 (0.005 mol/L) and NaCl (0.015 mol/L). The chlorophyll content was 30 mg/L in these experiments and the samples were irradiated (~100 W/m^2) from 10 cm distance with a halogen lamp (250 W) using a 4 cm water filter to prevent warming of the samples (suspension temperature 22 °C). The studied compounds were dissolved in DMSO due to their limited water solubility. […] The inhibitory efficiency of the studied compounds was expressed by IC50 values, i.e. by molar concentration of the compounds causing 50% decrease in the oxygen evolution rate relative to the untreated control.

[2] = test system: Trichosporon beigelii 1188; assay: In vitro antifungal broth microdilution test; assay type: cell-based; conditions: Trichosporon beigelii, 1188, RPMI 1640, pH 7.0, 35 °C, read-out: MIC/IC80 TB
Description: The broth microdilution test was used for the assessment of in vitro antifungal activity of the synthesized compounds against Candida albicans ATCC 44859 (CA), Candida tropicalis 156 (CT), Candida krusei ATCC 6258 (CK), Candida glabrata 20/I (CG), Trichosporon beigelii 1188 (TB), Aspergillus fumigatus 231 (AF), Absidia corymbifera 272 (AC), and Trichophyton mentagrophytes 445 (TM). Fluconazole (FLU) was used as the standard of a clinically used antimycotic drug. The procedure was performed with twofold dilution of the compounds in RPMI 1640 (Sevapharma a.s., Prague, Czech Republic) buffered to pH 7.0 with 0.165 mol of 3-morpholino-propane-1-sulfonic acid (MOPS, Sigma, Germany). The final concentrations of the compounds ranged from 500 to 0.975 μmol/l. Drug–free controls were included. The MIC was defined as an 80% or greater (IC80) reduction of growth in comparison with the control. The values of MICs were determined after 24 and 48 h of static incubation at 35 °C. For T. mentagrophytes, the final MICs were determined after 72 and 120 h of incubation.

[3] = Lipophilicity HPLC determination (capacity factor k / log k); assay type: physicochemical; conditions: RP-HPLC, C18 column, MeOH 55.0% / H2O 45.0%, isocratic
Description: Hydrophobicities (log P/Clog P values) of the compounds 1-12 were calculated using two commercially available programs and also measured by means of the reversed phase high performance liquid chromatography (RP-HPLC) method for lipophilicity measurement. The procedure was performed under isocratic conditions with methanol as an organic modifier in the mobile phase using an end-capped non-polar C18 stationary RP column. The capacity factors k were determined and subsequent log k values were calculated.
The HPLC separation module Waters Alliance 2695 XE and Waters Photodiode Array Detector 2996 (Waters Corp., Milford, MA, U.S.A.) were used. A Symmetry® C18 5 μm, 4.6 × 250 mm, Part No. WAT054275, (Waters Corp., Milford, MA, U.S.A.) chromatographic column was used. The HPLC separation process was monitored by Millennium32® Chromatography Manager Software, Waters 2004 (Waters Corp., Milford, MA, U.S.A.). The mixture of MeOH p.a. (55.0%) and H2O-HPLC – Mili-Q Grade (45.0%) was used as a mobile phase. The total flow of the column was 0.9 mL/min, injection 30 μL, column temperature 30 °C and sample temperature 10 °C. The detection wavelength 210 nm was chosen. The KI methanolic solution was used for the dead time (TD) determination. Retention times (tR) were measured in minutes. The capacity factors k were calculated using the Millennium32® Chromatography Manager Software according to formula k = (tR - tD) / tD, where tR is the retention time of the solute, whereas tD denotes the dead time obtained via an unretained analyte. Log k, calculated from the capacity factor k, is used as the lipophilicity index converted to log P scale.

[4] = test system: Candida glabrata 20/I; assay: In vitro antifungal broth microdilution test; assay type: cell-based; conditions: Nakaseomyces glabratus, 20/I
Description: (§1) Fluconazole (FLU) was used as the standard of a clinically used antimycotic drug. The procedure was performed with twofold dilution of the compounds in […]., Prague, Czech Republic) buffered to pH 7.0 with 0.165 mol of 3-morpholino-propane-1-sulfonic acid (MOPS, Sigma, Germany). […] Drug-free controls were included. The MIC was defined as an 80% or greater (IC80) reduction of growth in comparison with the control.

[5] = test system: Candida krusei ATCC 6258; assay: In vitro antifungal broth microdilution test; assay type: cell-based; conditions: Pichia kudriavzevii
Description: as §1

[6] = test system: Trichophyton mentagrophytes 445; assay: In vitro antifungal broth microdilution test; assay type: cell-based
Description: as §1

[7] = test system: Candida tropicalis 156; assay: In vitro antifungal broth microdilution test; assay type: cell-based
Description: as §1

[8] = test system: Absidia corymbifera 272; assay: In vitro antifungal broth microdilution test; assay type: cell-based
Description: as §1

[9] = test system: Candida albicans ATCC 44859; assay: In vitro antifungal broth microdilution test; assay type: cell-based; conditions: Candida albicans
Description: as §1

[10] = test system: Aspergillus fumigatus 231; assay: In vitro antifungal broth microdilution test; assay type: cell-based
Description: as §1

[11] = 24h, RPMI 1640, pH 7.0, 35 °C, read-out: MIC/IC80 CG
[12] = 48h, RPMI 1640, pH 7.0, 35 °C, read-out: MIC/IC80 CG
[13] = ATCC6258, 24h, RPMI 1640, pH 7.0, 35 °C, read-out: MIC/IC80 CK
[14] = ATCC6258, 48h, RPMI 1640, pH 7.0, 35 °C, read-out: MIC/IC80 CK
[15] = Trichophyton mentagrophytes, 445, 72h, RPMI 1640, pH 7.0, 35 °C, read-out: MIC/IC80 TM
[16] = Trichophyton mentagrophytes, 445, 120h, RPMI 1640, pH 7.0, 35 °C, read-out: MIC/IC80 TM
[17] = Candida tropicalis, 156, 24h, RPMI 1640, pH 7.0, 35 °C, read-out: MIC/IC80 CT
[18] = Candida tropicalis, 156, 48h, RPMI 1640, pH 7.0, 35 °C, read-out: MIC/IC80 CT
[19] = Lichtheimia corymbifera, 272, 24h, RPMI 1640, pH 7.0, 35 °C, read-out: MIC/IC80 AC
[20] = Lichtheimia corymbifera, 272, 48h, RPMI 1640, pH 7.0, 35 °C, read-out: MIC/IC80 AC
[21] = ATCC44859, 24h, RPMI 1640, pH 7.0, 35 °C, read-out: MIC/IC80 CA
[22] = ATCC44859, 48h, RPMI 1640, pH 7.0, 35 °C, read-out: MIC/IC80 CA
[23] = Aspergillus fumigatus, 231, 24h, RPMI 1640, pH 7.0, 35 °C, read-out: MIC/IC80 AF
[24] = Aspergillus fumigatus, 231, 48h, RPMI 1640, pH 7.0, 35 °C, read-out: MIC/IC80 AF

Structure (SMILES)	IC50 [1]	MIC ([2]; 24h)	MIC ([2]; 48h)	log k [3]	MIC [4, 11]	MIC [4, 12]	MIC [5, 13]	MIC [5, 14]	MIC [6, 15]	MIC [6, 16]	MIC [7, 17]	MIC [7, 18]	MIC [8, 19]	MIC [8, 20]	MIC [9, 21]	MIC [9, 22]	MIC [10, 23]	MIC [10, 24]	also measured
O=c1cc(O)c2ccccc2[nH]1 [Compound 1, 4-Hydroxyquinolin-2(1H)-one]	925 µM	> 500 µM	> 500 µM	0.0664															MIC ([4]; 24 h, pH 7, read-out: MIC/IC80 CG): > 500 µM; MIC ([4]; 48 h, pH 7, read-out: MIC/IC80 CG): > 500 µM; MIC ([5]; ATCC6258, 24 h, pH 7, read-out: MIC/IC80 CK): > 500 µM; MIC ([5]; ATCC6258, 48 h, pH 7, read-out: MIC/IC80 CK): > 500 µM; MIC ([6]; Trichophyton mentagrophytes, 445, 72 h, pH 7, read-out: MIC/IC80 TM): > 500 µM; MIC ([6]; Trichophyton mentagrophytes, 445, 120 h, pH 7, read-out: MIC/IC80 TM): > 500 µM; MIC ([7]; Candida tropicalis, 156, 24 h, pH 7, read-out: MIC/IC80 CT): > 500 µM; MIC ([7]; Candida tropicalis, 156, 48 h, pH 7, read-out: MIC/IC80 CT): > 500 µM; MIC ([8]; Lichtheimia corymbifera, 272, 24 h, pH 7, read-out: MIC/IC80 AC): > 500 µM; MIC ([8]; Lichtheimia corymbifera, 272, 48 h, pH 7, read-out: MIC/IC80 AC): > 500 µM; MIC ([9]; ATCC44859, 24 h, pH 7, read-out: MIC/IC80 CA): > 500 µM; MIC ([9]; ATCC44859, 48 h, pH 7, read-out: MIC/IC80 CA): > 500 µM; MIC ([10]; Aspergillus fumigatus, 231, 24 h, pH 7, read-out: MIC/IC80 AF): > 500 µM; MIC ([10]; Aspergillus fumigatus, 231, 48 h, pH 7, read-out: MIC/IC80 AF): > 500 µM
Cc1ccc2[nH]c(=O)cc(O)c2c1 [Compound 2, 4-Hydroxy-6-methylquinolin-2(1H)-one]	157 µM	> 500 µM	> 500 µM	0.3307	> 500 µM	> 500 µM	> 500 µM	> 500 µM	> 500 µM	> 500 µM	> 500 µM	> 500 µM	> 500 µM	> 500 µM	> 500 µM	> 500 µM	> 500 µM	> 500 µM	
O=C(O)c1ccc2[nH]c(=O)cc(O)c2c1O [Compound 3, 4,5-Dihydroxy-2-oxo-1,2-dihydroquinoline-6-carboxylic acid]	346 µM	250 µM (≈ 55.3 µg/mL)	> 500 µM	0.0002	250 µM (≈ 55.3 µg/mL)	250 µM (≈ 55.3 µg/mL)	> 500 µM	> 500 µM	> 500 µM	> 500 µM	500 µM (≈ 111 µg/mL)	> 500 µM	> 500 µM	> 500 µM	125 µM (≈ 27.6 µg/mL)	125 µM (≈ 27.6 µg/mL)	> 500 µM	> 500 µM	
O=c1[nH]c2ccccc2c(O)c1[N+](=O)[O-] [Compound 5, 4-Hydroxy-3-nitroquinolin-2(1H)-one]	510 µM	> 500 µM	> 500 µM	0.4052	> 500 µM	> 500 µM	> 500 µM	> 500 µM	> 500 µM	> 500 µM	> 500 µM	> 500 µM	> 500 µM	> 500 µM	> 500 µM	> 500 µM	> 500 µM	> 500 µM	OER inhibition effectiveness relative to compound 1 [1]: approximately twice as effective as compound 1
Nc1c(O)c2ccccc2[nH]c1=O [Compound 6, 3-Amino-4-hydroxyquinolin-2(1H)-one]	775 µM	> 500 µM	> 500 µM	0.0004	> 500 µM	> 500 µM	> 500 µM	> 500 µM	> 500 µM	> 500 µM	> 500 µM	> 500 µM	> 500 µM	> 500 µM	> 500 µM	> 500 µM	> 500 µM	> 500 µM	
O=C(/C=C/c1ccccc1)Nc1c(O)c2ccccc2[nH]c1=O [Compound 7, (2E)-N-(4-Hydroxy-2-oxo-1,2-dihydroquinolin-3-yl)-3-phenylprop-2-enamide]	916 µM	> 125 µM	> 125 µM	0.0128	> 125 µM	> 125 µM	> 125 µM	> 125 µM	> 125 µM	> 125 µM	> 125 µM	> 125 µM	> 125 µM	> 125 µM	> 125 µM	> 125 µM	> 125 µM	> 125 µM	
OC(Cn1cncn1)(Cn1cncn1)c1ccc(F)cc1F [FLU, Fluconazole, reference compound]		0.24 µM (≈ 0.0735 µg/mL)	0.48 µM (≈ 0.147 µg/mL)		0.98 µM (≈ 0.3 µg/mL)	3.91 µM (≈ 1.2 µg/mL)	3.91 µM (≈ 1.2 µg/mL)	15.6 µM (≈ 4.78 µg/mL)	1.95 µM (≈ 0.597 µg/mL)	3.91 µM (≈ 1.2 µg/mL)	0.12 µM (≈ 0.0368 µg/mL)	> 125 µM	> 125 µM	> 125 µM	0.06 µM (≈ 0.0184 µg/mL)	0.12 µM (≈ 0.0368 µg/mL)	> 125 µM	> 125 µM	
